Data from article PMC9721423, “Novel benzo chromene derivatives: design, synthesis, molecular docking, cell cycle arrest, and apoptosis induction in human acute myeloid leukemia HL-60 cells” (Journal of Enzyme Inhibition and Medicinal Chemistry, 2022).
Like-named read-outs stand apart in the source and are kept apart here.

Legend:
Assay in all cases: cells
Parameters in all cases: species or system NCI-60 human tumour cell lines; NCI-60 five-dose growth inhibition screen, sulforhodamine B protein stain
[1] = system: HOP-92; settings: Homo sapiens, HOP-92, 48 h
Summary of the method: (§1)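 NCI60 protocol: compounds (DMSO:glycerol stocks) tested at a single concentration of 10^−5 M for 48 h, growth read by sulforhodamine B protein staining as percent growth. For selected compounds, dose–response curves gave GI50, TGI and LC50; selectivity taken as full-panel MG-MID divided by subpanel MG-MID.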

[2] = system: SF-539; settings: Homo sapiens, SF-539, 48 h
Summary of the method: as §1

[3] = system: OVCAR-4; settings: Homo sapiens, OVCAR-4, 48 h; read-out: GI50 5a
Summary of the method: as §1

[4] = system: A549/ATCC; settings: Homo sapiens, A549, 48 h
Summary of the method: as §1

[5] = system: UO-31; settings: Homo sapiens, UO-31, 48 h; read-out: GI50 5a
Summary of the method: as §1

[6] = system: BT-549; settings: Homo sapiens, BT-549, 48 h
Summary of the method: as §1

[7] = system: UACC-257; settings: Homo sapiens, UACC-257, 48 h; read-out: GI50 5a
Summary of the method: as §1

[8] = system: K-562; settings: Homo sapiens, K562, 48 h
Summary of the method: as §1

[9] = system: TK-10; settings: Homo sapiens, TK-10, 48 h; read-out: GI50 5a
Summary of the method: as §1

Compound	GI50 ([1]; read-out: GI50 5a)	GI50 ([2]; read-out: GI50 5a)	GI50 [3]	GI50 ([4]; read-out: GI50 5a)	GI50 [5]	GI50 ([6]; read-out: GI50 5a)	GI50 [7]	GI50 ([8]; read-out: GI50 5a)	GI50 [9]	GI50 ([1]; read-out: GI50 6a)	GI50 ([2]; read-out: GI50 6a)	GI50 ([4]; read-out: GI50 6a)	GI50 ([6]; read-out: GI50 6a)	GI50 ([8]; read-out: GI50 6a)
N=C(NO)C1=C(N)Oc2c(ccc3ccccc23)C1c1ccccc1 (centres unmarked) [5a, 2-Amino-4-phenyl-N-hydroxy-4H-benzo[h]chromene-3-carboxamidine]	820 nM	210 nM	760 nM	420 nM	440 nM	1250 nM	18100 nM	60 nM	16800 nM					
CC(=O)NC1=C(C#N)C(c2ccccc2)c2ccc3ccccc3c2O1 (centres unmarked) [6a, N-(3-Cyano-4-phenyl-4H-benzo[h]chromen-2-yl)acetamide]										610 nM	350 nM	980 nM	990 nM	320 nM
